One block for each compound: values may come before it.
How the values were obtained:
CYP27B1 = assay: Real-time RT PCR CYP27B1 mRNA, normal epidermal keratinocytes; assay type: cell-based, human; conditions: 10^−8 M
Procedure: RNA was extracted using an Absolutely RNA RT-PCR Miniprep Kit (Stratagene, La Jolla, Calif.). Real time PCR and reverse transcription products were purchased from Applied Biosystems, Foster City, Calif. Reverse transcription was performed using Taqman® Reverse Transcription Reagents. The following PCR products were used: cytokeratin 14: Hs00265033_m1, involucrin: Hs00846307_s1, CYP27A1: Hs00168003_ml, CYP27B1: Hs00168017_ml, 18SrRNA: Hs99999901_s1. The reaction was performed with Taqman® Universal PCR Master Mix; data were collected on an ABI Prism 7700 and analyzed on Sequence Detector 1.9.1. Specific gene amounts were related to 18SrRNA by comparative CT method.

[1] = system: human dermal fibroblast line; assay: TGF-b1 induced hyaluronan synthesis by dermal fibroblasts; assay type: cell-based
Text: There were found no significant differences in fibroblast numbers per well and no significant differences in trypan blue exclusion between control wells vs those with secosteroids range 95-100% (data not shown).

HaCaT keratinocytes = assay: Colony forming (clonogenicity) assay in HaCaT keratinocytes; assay type: cell-based, human; conditions: 10 days
Procedure: HaCaT and human adult epidermal keratinocytes were cultured and DNA synthesis experiments were performed as described previously (26). Cells were plated in 6-well plates at a density of 20 cells/cm^2 in DMEM (Cellgro, Herndon Va.) containing 5% charcoal-treated fetal bovine serum (Hyclone, Logan, Utah), 1% antibiotic solution (PSA, Sigma, St. Louis, […].) and vehicle or secosteroids. Cells were incubated in 37° C. for 10 days with media being changed every 72 hr. Cells were fixed with 4% paraformaldehyde in PBS overnight, stained with 0.5% crystal violet in PBS for 15 min, rinsed and air-dried. The number and size of the colonies were measured using an ARTEK counter 880 (Dynex Technologies Inc., Chantilly, Va.). Colony forming units were calculated as follows: number of colonies (size>0.5 mm) was divided by the number of cells plated and multiplied by 100.

[2] = system: AbC1 hamster melanoma cells; assay: Proliferation (DNA synthesis) of AbC1; assay type: cell-based; conditions: AbC1, 72 h
Procedure: To measure DNA synthesis, keratinocytes, melanoma or prostate cancer cells were plated in 96-well plates. After overnight incubation tested compounds were added to the medium to achieve final concentrations 10^−7-10^−10 [M]. 100 μl of medium per well containing vitamin D3 compound was added to the cells. After 36 hours of incubation [3H]-thymidine (specific activity 88.0 Ci/mmol; Amersham Biosciences, Picataway, N.Y., USA) was added at 1 μCi/mL medium. After 12 hours, media were discarded, cells detached with trypsin and harvested on a glass fiber filter (Packard, Meriden, Calif., USA). 3H-radioactivity was measured with a beta counter (Direct Beta-Counter Matrix 9600; Packard).
HaCaT keratinocytes were an incubated for 48 h (FIG. 48A) or 72 h (FIG. 48B) in the presence of graded concentrations of 20(OH)D2 and/or 1,25(OH)2D3. […] Data are shown as mean±SD (n 3); *, p<0.05; **, p<0.01.

type I collagen = assay: Type I collagen ELISA, TGF-b1 stimulated skin fibroblasts; assay type: cell-based; conditions: human skin fibroblasts
Procedure: Additional studies using human skin fibroblasts were performed employing a type I collagen specific ELISA Chondrex, and real time RT PCR to quantitate type I collagen protein and Col1A1 mRNA expression in culture of human fibroblast stimulated by TGF-b1 in the presence and absence of 17,20S(OH)2pD3 and/or 20(OH)D3. These studies confirmed that Type I collagen protein production that was induced by TGF-b1 and that Col1A1 mRNA that was induced by TGF-b1 were suppressed by these analogues (FIGS. 44A-44B).

[3] = system: human osteosarcoma cell line MG-63; assay: Proliferation of MG-63 osteosarcoma cells; assay type: cell-based
Procedure: Cells were seeded in 96-well plate and incubated with 20-hydroxycholecalciferol in DMEM medium containing 5% FBS for 48 h (FIG. 25A) or 72 h (FIG. 25C) or for 24 h after a 12 h synchronization in serum free medium (FIG. 25D). […] was added for a final 18 h (FIGS. 25A, 25D) or 12 h (FIG. 25C) of incubation or cells were assessed with sulforhodamine assay (FIG. 25C). Data is shown as mean±SEM (n=5; FIG. 24C) or mean±SEM (n=6; FIGS. 24A, 24C, 24D) and was analyzed using GraphPrism 4.0.

NFκB = assay: NFκB-Luc reporter in HaCaT keratinocytes; assay type: cell-based, human; conditions: 100 nM
Procedure: HaCaT keratinocytes were transfected with NFκB-Luc construct using Lipofectamine Plus (Invitrogen, Carlsbad, Calif.) in DMEM medium with firefly luciferase reporter gene plasmid and with phRL-TK (expresses Renilla luciferase and serves as normalization control; Promega, Madison, Wis.). After transfection cells were incubated for 24 h in complete medium, and then after change to fresh media treated with drug or vehicle (ethanol) at the concentration of 10 nM for 30 minutes, 1 h, 4 h, 16 h and 24 h. The firefly luciferase and Renilla luciferase signals were recorded with a TD-20/20 luminometer (Turner Designs, Sunnyvale, Calif.); background luminescence was subtracted and the resulting promoter specific firefly signal was divided by the Renilla signal (proportional to the number of transfected cells). The values obtained were divided by the mean of control (untreated) cells.

[4] = system: SK Mel 188 human melanoma cells; assay: Soft agar colony formation, SKMEL 188 melanoma; assay type: cell-based
Procedure: Growth and survival of prostate cancer cells (PC3) and melanoma cells SKMEL 188 and AbC1 was determined by following their ability to form colonies in soft agar. Cells growing in monolayer culture were trypsinized and resuspended (1,000 cells/well) in 0.25 ml medium containing 0.4% agarose and 5% charcoal stripped serum (HyClone).
Cell suspensions were added to 0.8% agar layer in 24 well plates. […] Each condition was tested in quadruplicate. An ethanol solvent control (amount of ethanol equivalent to test) as well as a media-only control was included in the assay. Cells were allowed to grow at 37° with 5% CO2 over two weeks with secosteroids in fresh media (100 μL) being added after every 72 h. Soft agar colonies were scored and stained with 0.5 mg/ml MTT reagent (Promega), 500 μL/well after two weeks. Colonies were then counted under the microscope and number of units was calculated as number of colonies formed divided by the number of cells seeded×100.

Compound: C=C1/C(=C\C=C2/CCC[C@]3(C)[C@@H]([C@H](C)CCCC(C)(C)O)CC[C@@H]23)C[C@@H](O)C[C@@H]1O [1α,25-dihydroxycholecalciferol, (5Z,7E)-9,10-secocholesta-5,7,10(19)-triene-1α,3β,25-triol, reference compound]
inhibition of CYP27B1 expression (CYP27B1; 1 h): ~1.5 fold | TGF-b1 induced hyaluronan synthesis ([1]; 10^−10 M): inhibited TGF-b1 induced hyaluronan synthesis | inhibition at 0.01 µM (HaCaT keratinocytes; Homo sapiens, HaCaT, 240 h, 10^−8 M, read-out: inhibition of colony formation): 64% | proliferation [2]: Dose dependent inhibition of the proliferation

EC50 [3]: 570 nM
Compound: C=C1CC[C@H](O)C/C1=C/C=C1\CCC[C@@]2(C)[C@H]1CC[C@@H]2[C@@](C)(O)CCCC(C)C [20(OH)D3, (5Z,7E)-9,10-secocholesta-5,7,10(19)-triene-3β,20-diol]
inhibition of CYP27B1 expression (CYP27B1; 1 h): ~4 fold | inhibition of CYP27B1 expression (CYP27B1; 48 h): ~2 fold | TGF-b1 induced Type I collagen protein production (ELISA) (type I collagen): suppressed | inhibition of colony formation (HaCaT keratinocytes; 10^−7 M): 58% | inhibition of colony formation (HaCaT keratinocytes; 10^−8 M): 36%

Compound: C=C1CC[C@H](O)C/C1=C/C=C1\CCC[C@]2(C)[C@@H](C(C)(O)CC(O)CC(C)C)CC[C@@H]12 (stereo partly drawn) [20,23-dihydroxycholecalciferol, (5Z,7E)-9,10-secocholesta-5,7,10(19)-triene-3β,20,23-triol]
NFκB-Luc activity (NFκB): inhibition | less colonies bigger than 0.5 mm ([4]; Sk Mel 188, 0.1 nM and 100 nM): approximately 50%

Compound: C=C1CC[C@H](O)C/C1=C/C=C1\CCC[C@]2(C)[C@@H](C(C)=O)CC[C@@H]12 [pD3, (5Z,7E)-3β-hydroxy-9,10-secopregna-5,7,10(19)-trien-20-one]
NFκB-Luc activity (NFκB): inhibits NFκB-Luc activity | Hyaluronan CPM/Well (mean ± SEM) × 10^−5 FB ([1]; hrTGF-b1 5 ng/ml, secosteroids at 10^−10M): 135 ± 25 CPM/Well × 10^−5 FB | colony formation on soft agar ([4]; SKMEL-188, dose dependent): suppress colony formation on soft agar

Source: US20120258938A1, “Enzymatic Production or Chemical Synthesis and Uses for 5,7-Dienes and UVB Conversion Products Thereof” (priority 2008, published 2012)
